From patent US20100168165A1, “METHOD OF TREATING DISEASE INVOLVING MYELIN AND/OR AXONAL LOSS” (The United States of America, as represented by the …, priority 2007, published 2010)
Several values for one entry are separate records, joined by “and”; a condition that tells them apart may be missing. Equal entries are not always repeated.

Key:
[1] = tested on: actively induced chronic progressive EAE; assay: Actively induced chronic progressive EAE (MOG35-55 immunization), Tempol food from 14 days before immunization; format: in vivo, SJL mice
Experimental: (§1) SJL mice are placed on Tempol-containing food two weeks prior to the initiation of experimental autoimmune encephalomyelitis (EAE) either by active immunization with myelin antigens or the transfer of activated encephalitogenic T cells. Animals receive bacon-flavored control food and Tempol-containing food ad libitum (Bio-Serv, Frenchtown, N.J.). The composition of the control food and Tempol-containing food is identical with exception to the addition of Tempol at a concentration of 10 mg/gram of food (Mitchell et al., Free Radic. Biol. Med., 34: 93-102 (2003)). Bacon flavored food is used to mask the taste of Tempol. All experiments with animals are carried out according to protocols approved by and on file with the National Institute of Neurological Disorders and Stoke (NINDS) Animal Care and Use Committee (ACUC).
(§2) For the EAE induction, all animals are female, 8-10 weeks of age at time of myelin protein immunization. Animals are immunized for active EAE induction with 200 μg of MOG35-55 peptide in 4 mg/ml H37Ra Mycobacterium/IFA with 200 ng pertussis toxin delivered intraperitoneally (IP) on days 0 and 2. For passive EAE induction, SJL animals are immunized with 75 μg of PLP139-151 peptide in 1 mg/ml H37Ra Mycobacterium/IFA (Difco, Detroit, Mich.). Ten days later, axillary and inguinal lymph nodes are removed and placed into culture with 5 μg/ml of PLP139-151 peptide. After 3 days, activated T cells are counted and 2 million blasted T cells are transferred IP to each SJL recipient mouse.
Mice are placed on control- or Tempol-containing food 14 days (T-14) prior to immunization with MOG peptide for EAE induction (day 0=date of immunization). Mice are blindly evaluated for onset of disease and clinical scores are assigned following examination as follows: 0=no clinical signs; 1=flaccid tail; 2=paresis of one or both hind legs; 3=paralysis of one or both hind legs; 4=quadriparesis or quadriparalysis; 5=moribund. The cumulative score represents the mean of the summation of single scores recorded in each mouse over days 0 (day of immunization) to day 30 post disease induction. In this study, mice that are fed Tempol generate myelin antigen-specific T cells which are unable to cause paralytic disease in immunized mice.

[2] = tested on: passively induced chronic progressive EAE; assay: Passively induced chronic progressive EAE (transfer of PLP139-151-activated encephalitogenic T cells); format: in vivo, SJL mice
Experimental: as §1, §2
Mice are placed on control- or Tempol-containing food 14 days (T-14) prior to receipt of encephalitogenic T cells (day 0=date of T cell transfer). Mice are blindly evaluated for onset of disease and clinical scores were assigned following examination as follows: 0=no clinical signs; 1=flaccid tail; 2=paresis of one or both hind legs; 3=paralysis of one or both hind legs; 4=quadriparesis or quadriparalysis; 5=moribund. The cumulative score represents the mean of the summation of single scores recorded in each mouse over days 0 (day of T cell transfer) to day 48 post disease induction. PLP-specific T cells are capable of causing severe paralytic disease in the brain and spinal cord of control fed mice, yet Tempol-fed mice are protected showing decreased incidence of disease as well as reduced severity.
SJL animals are induced for disease by the passive transfer of encephalitogenic T cells as described in Example 1. Animals are placed on either Tempol or control feed at either (i) 2 weeks prior to transfer, (ii) at the time of transfer, or (iii) at the onset of disease.

MOG-induced active EAE = assay: MOG-induced active EAE, switched to Tempol feed after onset of clinical signs; format: in vivo, mice; details: feed switched once 60% of animals show at least grade 1; FIG. 4
Experimental: as §2

neurofilament H = assay: Spinal cord neurofilament H in passive EAE animals; format: in vivo, SJL mice; parameters: cumulative disease score / peak disease score: scale not given here
Experimental: SJL animals are induced for disease by the passive transfer of encephalitogenic T cells as described in Example 1. Animals are placed on either Tempol or control feed. The spinal cords of the animals are analyzed 90 days post transfer.
Neurofilament staining is representative of the presence of axons. During autoimmune or demyelinating processes, the loss of neurofilament H has been associated with axonal loss.

[3] = tested on: edema associated with inflammation and tissue damage; assay: Spinal cord T2 relaxation times (edema) in passive EAE; format: in vivo, SJL mice
Experimental: SJL animals are induced for disease by the passive transfer of encephalitogenic T cells as described in Example 1. Animals are placed on either Tempol or control feed. In a spinal cord histogram, T2 relaxation times typically increase due to inflammation and edema during CNS autoimmunity/disease during EAE. […] In the control-fed animals, the spinal cord T2 relaxation times shifted to higher values due to edema and inflammation.
The average T2 relaxation times are measured for SJL passively-induced EAE animals on Tempol 2 weeks prior to T cell transfer. Five scans are collected per animal, which are pooled from: 2 control animals (10 total), 4 control-fed EAE animals (20 total), and 4 Tempol-fed EAE animals (20 total).

inflammatory infiltrates = assay: Inflammatory infiltrate scoring of spinal cords at peak disease, passive EAE; format: in vivo, mice; details: 5 animals per group, 11 cord levels, scale 1-5; FIG. 8
Experimental: Animals induced passively for EAE with PLP-specific T cells are examined at peak disease for assessment of inflammatory infiltrates. The spinal cords from 5 animals per group (control-fed and Tempol-fed) are examined at 11 levels spanning the entire cord and assessed according to the following scale and an average inflammatory score is calculated per animal. Degree of inflammation: 1=1-2 mild infiltrates, little to no infiltration; 2=3+ infiltrates, +/− infiltration; 3=1-2 moderate infiltrates, 1-2 mild little/mild infiltrates; 4=3+ moderate infiltrates, or 1 severe/broad with or without mild infiltrates, extensive infiltration to parenchyma present; 5=2+ severe/broad parenchyma infiltrative, with or without additional mild/moderate associated infiltrates to parenchyma.

leukocytic infiltration = assay: Leukocyte count by flow cytometry in actively induced EAE; format: in vivo, C57BL/6J mice
From the text: Animals are placed on either Tempol or control feed, and the number of leukocytes are counted via flow cytometry.

myelin-specific T cells = assay: Spleen recall proliferation to myelin antigen 20 days after immunization; format: in vivo; details: three animals per group, pooled; FIG. 9
Experimental: Animals on control or Tempol feed are immunized with a myelin antigen, and the spleens are tested 20 days later for recall to antigen. Three animals per group are tested and the results are pooled (FIG. 9).

[4] = clinical score 0-5, Tempol food from T-14, n = 10
[5] = individual animals, passive EAE

CC1(C)CC(O)CC(C)(C)N1[O] [Tempol, 4-hydroxy-2,2,6,6-tetramethylpiperidine-1-oxyl]
Effect on incidence and severity of EAE ([1]; Table 1 and FIG. 1): reduces the incidence and severity
Incidence of disease ([1]; Tempol 10 mg/gram of food ad libitum from 14 days prior to MOG immunization, n = 10): .30
Average peak disease severity [1, 4]: 0.83
Average cumulative disease score ([1]; clinical score 0-5 summed over day 0 to day 30, Tempol food from T-14, n = 10): 2.05
Effect on incidence and severity of EAE ([2]; Table 2 and FIG. 2): reduces the incidence and severity
Incidence of disease ([2]; Tempol 10 mg/gram of food from 14 days prior to T cell transfer, n = 10): .70
Average peak disease severity [2, 4]: 2.81
Average cumulative disease score ([2]; clinical score 0-5 summed over day 0 to day 48, Tempol food from T-14, n = 10): 33.9
Clinical sign at peak disease ([2]; control animals: complete hind limb paralysis with forelimb weakness): hind limb paresis
Severity of clinical symptoms and cumulative disease score by time of administration ([2]; feed started 2 weeks prior to transfer, at transfer, or at disease onset, FIG. 3): reduces the severity of clinical symptoms and the cumulative disease score regardless of the time of administration
Time after feed administration until disease severity drops off (MOG-induced active EAE): ≤ 2 days
cumulative disease score (neurofilament H; [5]): 14 and 103.25 and 83.75 and 105.25 and 28.25 and 83 and 0.5 and 87.25 and 28.75
peak disease score (neurofilament H; [5]): 2.25 (2×) and 3.5 (4×) and 2.75 and 2.5 and 0
average (relative amount of spinal cord neurofilament H) (neurofilament H; individual animals, spinal cords analyzed 90 days post transfer): 0.9652 and 0.4487 and 0.7 and 0.3589 and 0.8499 and 0.3415 and 0.9171 and 0.9553 and 1.104
Preservation of neurofilament H (neurofilament H; versus control feed, FIG. 5 and Table 3): greater preservation of neurofilament H
Edema and inflammation by average T2 relaxation times ([3]; Tempol 2 weeks prior to T cell transfer, to levels observed in healthy animals, FIG. 7): limits (e.g., reduces) the edema and inflammation
T2 relaxation times, spinal cord histogram ([3]; versus control-fed EAE animals): lower T2 relaxation times
Inflammatory infiltrates at peak disease (inflammatory infiltrates): limits the inflammatory infiltrates
Inflammatory infiltrates at peak disease (leukocytic infiltration; actively induced EAE, Table 4): limits the inflammatory infiltrates
Microglial activation (upregulation of MHC class II expression) (leukocytic infiltration; compared to animals on control feed): reduces the degree of microglial activation
% B cell (leukocytic infiltration; flow cytometry, peak disease): 1.3% and 2.8%
% CD3 (leukocytic infiltration; flow cytometry, peak disease): 11.1% and 11.2%
% mac/gran (leukocytic infiltration; flow cytometry, peak disease): 10.1% and 20.2%
% microglia (leukocytic infiltration; flow cytometry, peak disease): 68.5% and 55.6%
% total CD45 hi (leukocytic infiltration; flow cytometry, peak disease): 21.0% and 33.8%
CD4:CD8 ratio (leukocytic infiltration; flow cytometry, peak disease): 1.7 and 1.5
Cell # (leukocytic infiltration; flow cytometry, peak disease): 1.0 ×10^6
Generation of myelin-specific T cells by proliferative responses (myelin-specific T cells): does not reduce the generation of myelin-specific T cells
